Data taken from patent EP2540163A1, “Nematocide N-cyclopropyl-sulfonylamide derivatives” (Bayer CropScience AG, priority 2011, dated 2013).

assay: logP by HPLC on reversed-phase column (C 18), EEC Directive 79/831 Annex V.A8, Method B (0.1% aqueous formic acid / acetonitrile, 40°C); type: physicochemical; settings: LogP method B: HPLC reversed-phase C 18, 40°C, 0.1% aqueous formic acid / acetonitrile
Experimental: Calibration was carried out using unbranched alkan-2-ones (having 3 to 16 carbon atoms) with known logP values (determination of the logP values by the retention times using linear interpolation between two successive alkanones).

Row | Structure (SMILES) | LogP
1 | CCCCCc1ccc(Oc2ccc(S(=O)(=O)N(C(=O)c3cn(C)nc3OCC)C3CC3)c(Br)c2)cc1 [compound 561] | 5,8

same assay, conditions: c18 reversed-phase hplc; LogP method B: HPLC reversed-phase C 18, 40°C, 0.1% aqueous formic acid / acetonitrile

Row | Structure (SMILES) | chromatographic logP
2 | Cc1nn(C)c(N(C)C)c1C(=O)N(C1CC1)S(=O)(=O)c1ccc(Cl)c(Cl)c1Cl [compound 229] | 3.6
3 | CCOc1nn(C)cc1C(=O)N(C1CC1)S(=O)(=O)c1ccc(Oc2ccc(OC)c(OC)c2)c(Cl)c1 [compound 528] | 3.5
4 | CCc1nn(C)c(F)c1C(=O)N(C1CC1)S(=O)(=O)c1cc(C(F)(F)F)ccc1Cl [compound 384] | 3.5
5 | CCc1nn(C)c(F)c1C(=O)N(C1CC1)S(=O)(=O)c1ccc(Br)cc1Cl [compound 385] | 3.4
6 | COc1nn(C)cc1C(=O)N(C1CC1)S(=O)(=O)c1ccc(Oc2ccc(Cl)c(Cl)c2)cc1Br [compound 478] | 4.2
7 | CCOc1nn(C)cc1C(=O)N(C1CC1)S(=O)(=O)c1ccc(Oc2ccccc2)c(Cl)c1 [compound 533] | 3.9
8 | Cc1oncc1C(=O)N(C1CC1)S(=O)(=O)c1ccc(Cl)c(Cl)c1Cl [compound 604] | 2.6
9 | CCOc1nn(C)cc1C(=O)N(C1CC1)S(=O)(=O)c1ccc(Oc2ccc(Br)c(Cl)c2)cc1Cl [compound 544] | 4.3
10 | CCCCCc1ccc(Oc2ccc(S(=O)(=O)N(C(=O)c3cn(C)nc3OCC)C3CC3)c(Cl)c2)cc1 [compound 560] | 5.6
11 | Cc1cnn(C)c1C(=O)N(C1CC1)S(=O)(=O)c1ccc(Cl)c(Cl)c1Cl [compound 659] | 3.6
12 | Cn1nc(C(F)(F)F)c(C(=O)N(C2CC2)S(=O)(=O)c2c(Cl)cccc2Cl)c1F [compound 360] | 3.1
13 | Cn1nc(C(F)F)c(C(=O)N(C2CC2)S(=O)(=O)c2ccccc2Cl)c1F [compound 103] | 2.8
14 | COc1nn(C)cc1C(=O)N(C1CC1)S(=O)(=O)c1csc(Cl)c1Cl [compound 440] | 3.1
15 | CCc1nn(C)c(F)c1C(=O)N(C1CC1)S(=O)(=O)c1cnc(Cl)c(Br)c1 [compound 448] | 3.5
16 | COc1nn(C)cc1C(=O)N(C1CC1)S(=O)(=O)c1ccc(Oc2cc(Cl)cc(Cl)c2)cc1Br [compound 481] | 4.3
17 | CCOc1nn(C)cc1C(=O)N(C1CC1)S(=O)(=O)c1ccc(Oc2ccc(F)c(Cl)c2)cc1Cl [compound 536] | 4
18 | Cn1nc(C(F)(F)F)c(C(=O)N(C2CC2)S(=O)(=O)c2ccc(F)cc2Cl)c1F [compound 362] | 3.1
19 | Cn1nc(C(F)(F)F)c(C(=O)N(C2CC2)S(=O)(=O)c2cc(Cl)c(Cl)cc2Cl)c1F [compound 361] | 4
20 | COc1cscc1C(=O)N(C1CC1)S(=O)(=O)c1cccc(Cl)c1Cl [compound 25] | 3.3
21 | CCOc1nn(C)cc1C(=O)N(C1CC1)S(=O)(=O)c1ccc(Oc2ccc(Cl)cc2)cc1Cl [compound 535] | 4
22 | COc1nn(C)cc1C(=O)N(C1CC1)S(=O)(=O)c1cnc(Cl)c(Br)c1 [compound 449] | 2
23 | Cn1nc(C(F)F)c(C(=O)N(C2CC2)S(=O)(=O)c2ccc(Cl)cc2Cl)c1F [compound 105] | 3.4
24 | Cc1cc(C(=O)N(C2CC2)S(=O)(=O)c2cccc(Cl)c2Cl)nn1C [compound 74] | 2.7

Row | Structure (SMILES) | chromatographic logP
25 | O=C(c1cccnc1Cl)N(C1CC1)S(=O)(=O)c1cccc(Cl)c1Cl [compound 645] | 3.2
26 | CCOc1nn(C)cc1C(=O)N(C1CC1)S(=O)(=O)c1ccc(Oc2cccc(N(C)C)c2)c(Cl)c1 [compound 539] | 4.1
27 | COc1c(C(=O)N(C2CC2)S(=O)(=O)c2ccc(Cl)c(Cl)c2Cl)c(C)nn1C [compound 230] | 3.2
28 | CCOc1nn(C)cc1C(=O)N(C1CC1)S(=O)(=O)c1ccc(Oc2cccc(C(F)(F)F)c2)c(Cl)c1 [compound 549] | 4.4
29 | COc1nn(C)cc1C(=O)N(C1CC1)S(=O)(=O)c1ccc(Oc2ccc(Br)c(Cl)c2)cc1Br [compound 480] | 4.2
30 | CCOc1nn(C)cc1C(=O)N(C1CC1)S(=O)(=O)c1ccc(Oc2cccc(N(C)C)c2)cc1Cl [compound 532] | 3.8
31 | CCc1nn(C)c(F)c1C(=O)N(C1CC1)S(=O)(=O)c1cc(Cl)cc(Cl)c1 [compound 376] | 3.9
32 | Cn1ncc(I)c1C(=O)N(C1CC1)S(=O)(=O)c1ccc(Cl)c(Cl)c1Cl [compound 663] | 3.4
33 | CCOc1nn(C)cc1C(=O)N(C1CC1)S(=O)(=O)c1ccc(Oc2ccc(OC)cc2)cc1Cl [compound 529] | 3.5
34 | Cn1cc(C(=O)N(C2CC2)S(=O)(=O)c2cccc(Cl)c2Cl)c(C(F)F)n1 [compound 221] | 2.9
35 | CCc1nn(C)c(F)c1C(=O)N(C1CC1)S(=O)(=O)c1ccc(Cl)c(Cl)c1 [compound 378] | 3.8
36 | CCOc1nn(C)cc1C(=O)N(C1CC1)S(=O)(=O)c1ccc(Oc2ccc(OC)c(OC)c2)cc1Cl [compound 527] | 3.2
37 | Cc1cc(C(=O)N(C2CC2)S(=O)(=O)c2cccc(Cl)c2Cl)c(C)o1 [compound 5] | 3.8
38 | CCc1nn(C)c(F)c1C(=O)N(C1CC1)S(=O)(=O)c1c(Cl)cc(Cl)cc1Cl [compound 379] | 3.6
39 | Cc1nocc1C(=O)N(C1CC1)S(=O)(=O)c1ccc(Cl)c(Cl)c1Cl [compound 600] | 3.6
40 | CCOc1nn(C)cc1C(=O)N(C1CC1)S(=O)(=O)c1ccc(Oc2ccc(Br)cc2)c(Cl)c1 [compound 552] | 4.5
41 | Cn1nc(C(F)(F)F)c(C(=O)N(C2CC2)S(=O)(=O)c2c(Cl)sc(Cl)c2Br)c1F [compound 436] | 3.9
42 | O=C(c1cccnc1Cl)N(C1CC1)S(=O)(=O)c1ccc(Cl)c(Cl)c1Cl [compound 647] | 3.7
43 | CCc1nn(C)c(F)c1C(=O)N(C1CC1)S(=O)(=O)c1csc(Cl)c1Cl [compound 438] | 4
44 | Cc1cc(C(=O)N(C2CC2)S(=O)(=O)c2ccc(Cl)c(Cl)c2Cl)c(C)o1 [compound 6] | 4.4
45 | Cn1cc(C(=O)N(C2CC2)S(=O)(=O)c2ccc(Cl)c(Cl)c2Cl)c(C(F)(F)F)c1 [compound 37] | 3.9
46 | Cn1nc(C(F)(F)F)c(C(=O)N(C2CC2)S(=O)(=O)c2ccc(Oc3ncc(C(F)(F)F)cc3Cl)cc2)c1F [compound 372] | 4.2
47 | Cn1cc(C(=O)N(C2CC2)S(=O)(=O)c2cccc(Cl)c2Cl)c(C(F)(F)F)c1 [compound 36] | 3.3

Row | Structure (SMILES) | chromatographic logP
48 | Cn1nc(C2CC2)c(C(=O)N(C2CC2)S(=O)(=O)c2cccc(Cl)c2Cl)c1Cl [compound 225] | 4.7
49 | Cc1oncc1C(=O)N(C1CC1)S(=O)(=O)c1cccc(Cl)c1Cl [compound 603] | 2.2
50 | CCCOc1nn(C)cc1C(=O)N(C1CC1)S(=O)(=O)c1ccc(Oc2cc(Cl)cc(Cl)c2)cc1Br [compound 305] | 5.1
51 | CCOc1nn(C)cc1C(=O)N(C1CC1)S(=O)(=O)c1ccc(Oc2ccc(OC)cc2)c(Cl)c1 [compound 531] | 3.8
52 | CCOc1nn(C)cc1C(=O)N(C1CC1)S(=O)(=O)c1ccc(Oc2ccc(Br)c(Cl)c2)c(Cl)c1 [compound 558] | 4.9
53 | CCOc1nn(C)cc1C(=O)N(C1CC1)S(=O)(=O)c1ccc(Oc2ccc(C)cc2)c(Cl)c1 [compound 542] | 4.3
54 | CCc1nn(C)c(F)c1C(=O)N(C1CC1)S(=O)(=O)c1c(Cl)cc(C(F)(F)F)cc1Cl [compound 387] | 3.8
55 | Cn1nc(-c2ccccc2)c(C(=O)N(C2CC2)S(=O)(=O)c2cccc(Cl)c2Cl)c1F [compound 101] | 3.7
56 | CCOc1nn(C)cc1C(=O)N(C1CC1)S(=O)(=O)c1ccc(Oc2ccccc2Cl)c(Cl)c1 [compound 537] | 4.1
57 | CCOc1nn(C)cc1C(=O)N(C1CC1)S(=O)(=O)c1ccc(Oc2ccc(Cl)cc2Cl)c(Cl)c1 [compound 555] | 4.7
58 | Cc1nn(C)c(C#N)c1C(=O)N(C1CC1)S(=O)(=O)c1ccc(Cl)c(Cl)c1Cl [compound 228] | 3.9
59 | CCOc1nn(C)cc1C(=O)N(C1CC1)S(=O)(=O)c1ccc(Oc2cc(Cl)cc(Cl)c2)c(Cl)c1 [compound 559] | 5
60 | O=C(c1cccnc1Cl)N(C1CC1)S(=O)(=O)c1ccc(Oc2ccccc2)cc1 [compound 646] | 3.7
61 | CCCOc1nn(C)cc1C(=O)N(C1CC1)S(=O)(=O)c1ccc(Oc2ccc(Cl)c(C(F)(F)F)c2)cc1Br [compound 302] | 4.9
62 | COc1nn(C)cc1C(=O)N(C1CC1)S(=O)(=O)c1ccc(Oc2cccc(Cl)c2)cc1Br [compound 468] | 3.7
63 | CCOc1nn(C)cc1C(=O)N(C1CC1)S(=O)(=O)c1ccc(Oc2cccc(OC(F)(F)F)c2)c(Cl)c1 [compound 554] | 4.5
64 | CCOc1nn(C)cc1C(=O)N(C1CC1)S(=O)(=O)c1ccc(Oc2ccc(F)c(Cl)c2)c(Cl)c1 [compound 548] | 4.4
65 | COc1nn(C)c(Cl)c1C(=O)N(C1CC1)S(=O)(=O)c1cccc(Cl)c1Cl [compound 278] | 3.2
66 | COc1nn(C)cc1C(=O)N(C1CC1)S(=O)(=O)c1ccc(Oc2ccc(Cl)cc2Cl)cc1Br [compound 477] | 4.1
67 | CC(C)c1nn(C)c(F)c1C(=O)N(C1CC1)S(=O)(=O)c1cccc(Cl)c1Cl [compound 93] | 3.6
68 | Cc1nocc1C(=O)N(C1CC1)S(=O)(=O)c1cccc(Cl)c1Cl [compound 599] | 3
69 | CCc1nn(C)c(F)c1C(=O)N(C1CC1)S(=O)(=O)c1c(Cl)sc(Cl)c1Br [compound 437] | 3.8

same assay, conditions: c18 reversed-phase hplc; LogP method B: HPLC, 40°C, 0.1% aqueous formic acid and acetonitrile, gradient 10% to 90% acetonitrile

Row | Structure (SMILES) | chromatographic logP
70 | Cc1nn(C)c(F)c1C(=O)N(C1(c2ccccc2)CC1)S(=O)(=O)c1cccc(Cl)c1Cl [compound 670] | 4.1
71 | COC(=O)C1(N(C(=O)c2c(C(F)(F)F)nn(C)c2F)S(=O)(=O)c2ccc(Cl)c(Cl)c2Cl)CC1 [compound 667] | 4.04
